Source: PubChem BioAssay (NCI)
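48-hour exposure; five concentrations; linearly interpolated endpoints. GI50 marks 50% less growth. At the TGI there is no net growth.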

Key:
Test in all cases: NCI tumour cell line growth inhibition, 48 h
SF-295 CNS = tested on: SF-295 CNS
DU-145 prostate = tested on: DU-145 prostate
M14 melanoma = tested on: M14 melanoma
OVCAR-5 ovarian = tested on: OVCAR-5 ovarian
OVCAR-3 ovarian = tested on: OVCAR-3 ovarian
NCI-H226 lung = tested on: NCI-H226 lung
MDA-MB-231 breast = tested on: MDA-MB-231 breast
SNB-75 CNS = tested on: SNB-75 CNS
A498 renal = tested on: A498 renal
HCC-2998 colon = tested on: HCC-2998 colon
NCI-H460 lung = tested on: NCI-H460 lung
MALME-3M melanoma = tested on: MALME-3M melanoma
SW-620 colon = tested on: SW-620 colon
TK-10 renal = tested on: TK-10 renal
SF-539 CNS = tested on: SF-539 CNS
SK-MEL-2 melanoma = tested on: SK-MEL-2 melanoma
HS 578T breast = tested on: HS 578T breast
OVCAR-4 ovarian = tested on: OVCAR-4 ovarian
SF-268 CNS = tested on: SF-268 CNS
KM12 colon = tested on: KM12 colon
IGROV1 ovarian = tested on: IGROV1 ovarian
SR leukemia = tested on: SR leukemia
SK-OV-3 ovarian = tested on: SK-OV-3 ovarian
HCT-15 colon = tested on: HCT-15 colon
UACC-257 melanoma = tested on: UACC-257 melanoma
UACC-62 melanoma = tested on: UACC-62 melanoma
HT29 colon = tested on: HT29 colon
MCF7 breast = tested on: MCF7 breast
UO-31 renal = tested on: UO-31 renal
HOP-62 NSCLC = tested on: HOP-62 NSCLC
MDA-MB-468 breast = tested on: MDA-MB-468 breast
ACHN renal = tested on: ACHN renal
NCI-H23 lung = tested on: NCI-H23 lung
MOLT-4 leukemia = tested on: MOLT-4 leukemia
LOX IMVI melanoma = tested on: LOX IMVI melanoma
CCRF-CEM leukemia = tested on: CCRF-CEM leukemia
RXF 393 renal = tested on: RXF 393 renal
CAKI-1 renal = tested on: CAKI-1 renal
EKVX NSCLC = tested on: EKVX NSCLC
COLO 205 colon = tested on: COLO 205 colon
SK-MEL-28 melanoma = tested on: SK-MEL-28 melanoma
K-562 leukemia = tested on: K-562 leukemia
786-0 renal = tested on: 786-0 renal
RPMI-8226 leukemia = tested on: RPMI-8226 leukemia
HL-60(TB) leukemia = tested on: HL-60(TB) leukemia
NCI/ADR-RES ovarian = tested on: NCI/ADR-RES ovarian
HOP-92 NSCLC = tested on: HOP-92 NSCLC
SK-MEL-5 melanoma = tested on: SK-MEL-5 melanoma
HCT-116 colon = tested on: HCT-116 colon
MDA-MB-435 = tested on: MDA-MB-435
U251 CNS = tested on: U251 CNS
A549 NSCLC = tested on: A549 NSCLC
BT-549 breast = tested on: BT-549 breast
SN12C renal = tested on: SN12C renal
PC-3 prostate = tested on: PC-3 prostate
NCI-H522 lung = tested on: NCI-H522 lung
SNB-19 CNS = tested on: SNB-19 CNS
OVCAR-8 ovarian = tested on: OVCAR-8 ovarian

## COc1ccc2[nH]c(O)c(N=Nc3nc(-c4ccc(Br)cc4)cs3)c2c1
SF-295 CNS
  GI50: 11.3 µM
  TGI: 39.3 µM
DU-145 prostate
  GI50: 4.54 µM
  TGI: 32.6 µM
M14 melanoma
  GI50: 2.81 µM
  TGI: 10.3 µM
OVCAR-5 ovarian
  GI50: 5.77 µM
  TGI: 33.8 µM
OVCAR-3 ovarian
  GI50: 2.91 µM
  TGI: 10.4 µM
NCI-H226 lung
  GI50: 4.44 µM
  TGI: 19.5 µM
MDA-MB-231 breast
  GI50: 5.35 µM
  TGI: 20.7 µM
SNB-75 CNS
  GI50: 3 µM
  TGI: 21.3 µM
A498 renal
  GI50: 2.38 µM
  TGI: 6.5 µM
HCC-2998 colon
  GI50: 4.25 µM
  TGI: > 100 µM
NCI-H460 lung
  GI50: 2.48 µM
  TGI: 6.14 µM
MALME-3M melanoma
  GI50: 1.69 µM
  TGI: 3.2 µM
SW-620 colon
  GI50: 3.06 µM
  TGI: > 100 µM
TK-10 renal
  GI50: 14.7 µM
  TGI: 89.9 µM
SF-539 CNS
  GI50: 1.92 µM
  TGI: 3.95 µM
SK-MEL-2 melanoma
  GI50: 2.6 µM
  TGI: 8.11 µM
HS 578T breast
  GI50: 7.34 µM
  TGI: > 100 µM
OVCAR-4 ovarian
  GI50: 1.73 µM
  TGI: 3.23 µM
SF-268 CNS
  GI50: 6.49 µM
  TGI: 36.6 µM
KM12 colon
  GI50: 6.23 µM
  TGI: > 100 µM
IGROV1 ovarian
  GI50: 5.41 µM
  TGI: > 100 µM
SR leukemia
  GI50: 4.73 µM
  TGI: > 100 µM
SK-OV-3 ovarian
  GI50: 6.16 µM
  TGI: 50.3 µM
HCT-15 colon
  GI50: 4.43 µM
  TGI: 30.6 µM
UACC-257 melanoma
  GI50: 8.64 µM
  TGI: > 100 µM
UACC-62 melanoma
  GI50: 2.97 µM
  TGI: > 100 µM
HT29 colon
  GI50: 7.18 µM
  TGI: > 100 µM
MCF7 breast
  GI50: 2.98 µM
  TGI: 79.8 µM
UO-31 renal
  GI50: 9.13 µM
  TGI: 28.2 µM
HOP-62 NSCLC
  GI50: 6.51 µM
  TGI: 36 µM
MDA-MB-468 breast
  GI50: 2.17 µM
  TGI: 5.81 µM
ACHN renal
  GI50: 3.18 µM
  TGI: 10.1 µM
NCI-H23 lung
  GI50: 3.51 µM
  TGI: 14.2 µM
MOLT-4 leukemia
  GI50: 3.33 µM
  TGI: > 100 µM
LOX IMVI melanoma
  GI50: 3.77 µM
  TGI: 12.5 µM
CCRF-CEM leukemia
  GI50: 6.56 µM
  TGI: > 100 µM
RXF 393 renal
  GI50: 2.29 µM
  TGI: 5.07 µM
CAKI-1 renal
  GI50: 5.1 µM
  TGI: 32.7 µM
EKVX NSCLC
  GI50: 3.63 µM
  TGI: 27.9 µM
COLO 205 colon
  GI50: 5.6 µM
  TGI: > 100 µM
SK-MEL-28 melanoma
  GI50: 2.01 µM
  TGI: 4.19 µM
K-562 leukemia
  GI50: 4.35 µM
  TGI: > 100 µM
786-0 renal
  GI50: 1.65 µM
  TGI: 3.22 µM
RPMI-8226 leukemia
  GI50: 3.62 µM
  TGI: > 100 µM
HL-60(TB) leukemia
  GI50: 87.8 µM
  TGI: > 100 µM
NCI/ADR-RES ovarian
  GI50: 2.1 µM
  TGI: 4.58 µM
HOP-92 NSCLC
  GI50: 1.96 µM
  TGI: 5.21 µM
SK-MEL-5 melanoma
  GI50: 4.72 µM
  TGI: 30.9 µM
HCT-116 colon
  GI50: 2.35 µM
  TGI: 5.72 µM
MDA-MB-435
  GI50: 6.64 µM
  TGI: > 100 µM
U251 CNS
  GI50: 2.96 µM
  TGI: 9.25 µM
A549 NSCLC
  GI50: 3.07 µM
  TGI: 12.9 µM
BT-549 breast
  GI50: 7.26 µM
  TGI: 36.6 µM
SN12C renal
  GI50: 3.16 µM
  TGI: 11.1 µM
PC-3 prostate
  GI50: 5.22 µM
  TGI: 60.1 µM
NCI-H522 lung
  GI50: 2.5 µM
  TGI: 39 µM
SNB-19 CNS
  GI50: 8.01 µM
  TGI: 52.4 µM
OVCAR-8 ovarian
  GI50: 3.07 µM
  TGI: 9.52 µM
